Laboratory results taken from patent US6017935A, “7-sulfur substituted paclitaxels” (Bristol-Myers Squibb Company, priority 1998, dated 2000).

test system: HCT-116 human colon carcinoma cells; experiment: Cytotoxicity (in vitro) MTS assay in HCT-116 human colon carcinoma cells; type: cell-based; settings: Homo sapiens, HCT-116, 72 h, read-out: IC50 HCT 116, HCT-116 cells, MTS assay, 72 hours at 37° C.; drug concentration required to inhibit cell proliferation to 50% of untreated control
Experimental: Cytoxicity was assessed in HCT-116 human colon carcinoma cells by MTS (3-(4,5-dimethylthiazol-2-yl)-5-(3-carboxymethoxyphenyl)-2-(4-sulphenyl)-2H-tetrazolium, inner salt) assay as reported in T. L. Riss, et al., "Comparison of MTT, XTT, and a novel tetrazolium compound MTS for in vitro proliferation and chemosensitivity assays.", Mol. Biol. Cell 3 (Suppl.):184a, 1992. Cells were plated at 4,000 cell/well in 96 well microtiter plates and 24 hours later drugs were added and serial diluted. The cells were incubated at 37° C. for 72 hours at which time the tetrazolium dye, MTS at 333 μg/ml (final concentration), in combination with the electron coupling agent phenazine methosulfate at 25 μM (final concentration) was added. A dehydrogenase enzyme in live cell reduces the MTS to a form that absorbs light at […] which can be quantitated spectrophotometrically. The greater the absorbance the greater the number of live cells. The results are expressed as an IC50, which is the drug concentration required to inhibit cell proliferation (i.e. absorbance at 450 nm) to 50% of that of untreated control cells.

Compared with `CS[C@H]1C[C@H]2OC[C@@]2(OC(C)=O)[C@H]2[C@H](OC(=O)c3ccccc3)[C@]3(O)C[C@H](OC(=O)[C@H](O)[C@@H](NC(=O)c4ccccc4)c4ccccc4)C(C)=C([C@@H](OC(C)=O)C(=O)[C@]12C)C3(C)C` [Compound 18a, 7-deoxy-7β-thiomethylpaclitaxel], `CS[C@@H]1C[C@H]2OC[C@@]2(OC(C)=O)[C@H]2[C@H](OC(=O)c3ccccc3)[C@]3(O)C[C@H](OC(=O)[C@H](O)[C@@H](NC(=O)c4ccccc4)c4ccccc4)C(C)=C([C@@H](OC(C)=O)C(=O)[C@@]21C)C3(C)C` [Compound 5a, 7-deoxy-7α-thiomethylpaclitaxel] is 66-fold higher in IC50: 0.2 nM for the first, 13.1 nM for the second.

First: CC(=O)O[C@H]1C(=O)[C@@]2(C)[C@H]([C@H](OC(=O)c3ccccc3)[C@]3(O)C[C@H](OC(=O)[C@H](O)[C@@H](NC(=O)c4ccccc4)c4ccccc4)C(C)=C1C3(C)C)[C@]1(OC(C)=O)CO[C@@H]1C[C@@H]2O [paclitaxel]
Second: CC(=O)O[C@H]1C(=O)[C@@]2(C)[C@H]([C@H](OC(=O)c3ccccc3)[C@]3(O)C[C@H](OC(=O)[C@H](O)[C@@H](NC(=O)c4ccccc4)c4ccccc4)C(C)=C1C3(C)C)[C@]1(OC(C)=O)CO[C@@H]1C[C@@H]2S [Compound 14a, 7-deoxy-7β-thiopaclitaxel]
The IC50 of the first is lower: 1.71 to 2.28 nM for the first, 13.5 nM for the second. The first is the more potent here.

Compared with `CC(=O)O[C@H]1C(=O)[C@]2(C)[C@@H](SCc3ccccn3)C[C@H]3OC[C@@]3(OC(C)=O)[C@H]2[C@H](OC(=O)c2ccccc2)[C@]2(O)C[C@H](OC(=O)[C@H](O)[C@@H](NC(=O)c3ccccc3)c3ccccc3)C(C)=C1C2(C)C` [Compound 30a, 7-deoxy-7β-(thio-2-picolyl)-paclitaxel], `CCS[C@H]1C[C@H]2OC[C@@]2(OC(C)=O)[C@H]2[C@H](OC(=O)c3ccccc3)[C@]3(O)C[C@H](OC(=O)[C@H](O)[C@@H](NC(=O)c4ccccc4)c4ccccc4)C(C)=C([C@@H](OC(C)=O)C(=O)[C@]12C)C3(C)C` [Compound 24a, 7-deoxy-7β-thioethylpaclitaxel] is 3.6-fold higher in IC50: 1.12 nM for the first, 4.02 nM for the second. The first is the more potent here.

Compared with `COCS[C@H]1C[C@H]2OC[C@@]2(OC(C)=O)[C@H]2[C@H](OC(=O)c3ccccc3)[C@]3(O)C[C@H](OC(=O)[C@H](O)[C@@H](NC(=O)c4ccccc4)c4ccccc4)C(C)=C([C@@H](OC(C)=O)C(=O)[C@]12C)C3(C)C` [Compound 16a, 7-deoxy-7β-thiomethoxymethyl paclitaxel], `CC(=O)O[C@H]1C(=O)[C@]2(C)[C@@H](SC[S+](C)[O-])C[C@H]3OC[C@@]3(OC(C)=O)[C@H]2[C@H](OC(=O)c2ccccc2)[C@]2(O)C[C@H](OC(=O)[C@H](O)[C@@H](NC(=O)c3ccccc3)c3ccccc3)C(C)=C1C2(C)C` (stereo partly drawn) [31a&b, 7-deoxy-7β-methylsulfinylmethylthiopaclitaxel] is 13-fold higher in IC50: 0.5 nM for the first, 6.48 nM for the second. The first is the more potent here.

Compared with `CS[C@H]1C[C@H]2OC[C@@]2(OC(C)=O)[C@H]2[C@H](OC(=O)c3ccccc3)[C@]3(O)C[C@H](OC(=O)[C@H](O)[C@@H](NC(=O)OC(C)(C)C)c4ccccc4)C(C)=C([C@@H](OC(C)=O)C(=O)[C@]12C)C3(C)C` [Compound 22a, 3'-NH-Boc-7-deoxy-7β-thiomethylpaclitaxel], `C=CS[C@H]1C[C@H]2OC[C@@]2(OC(C)=O)[C@H]2[C@H](OC(=O)c3ccccc3)[C@]3(O)C[C@H](OC(=O)[C@H](O)[C@@H](NC(=O)c4ccccc4)c4ccccc4)C(C)=C([C@@H](OC(C)=O)C(=O)[C@]12C)C3(C)C` [Compound 27a, 7-deoxy-7β-thiovinylpaclitaxel] is 4-fold higher in IC50: 0.3 nM for the first, 1.2 nM for the second.

First: COC(=O)/C=C/S[C@H]1C[C@H]2OC[C@@]2(OC(C)=O)[C@H]2[C@H](OC(=O)c3ccccc3)[C@]3(O)C[C@H](OC(=O)[C@H](O)[C@@H](NC(=O)c4ccccc4)c4ccccc4)C(C)=C([C@@H](OC(C)=O)C(=O)[C@]12C)C3(C)C [Compound 34a, 7-deoxy-7β-thio-(3-methylacrylate)paclitaxel]
Second: COC(=O)/C=C\S[C@H]1C[C@H]2OC[C@@]2(OC(C)=O)[C@H]2[C@H](OC(=O)c3ccccc3)[C@]3(O)C[C@H](OC(=O)[C@H](O)[C@@H](NC(=O)c4ccccc4)c4ccccc4)C(C)=C([C@@H](OC(C)=O)C(=O)[C@]12C)C3(C)C [Compound 35a, 7-deoxy-7β-thio-(3-methylacrylate)paclitaxel]
The IC50 of the first is 4-fold higher: 6.97 nM for the first, 1.76 nM for the second. The second is the more potent here.

Compared with `CC(=O)O[C@H]1C(=O)[C@]2(C)[C@@H](SC#N)C[C@H]3OC[C@@]3(OC(C)=O)[C@H]2[C@H](OC(=O)c2ccccc2)[C@]2(O)C[C@H](OC(=O)[C@H](O)[C@@H](NC(=O)c3ccccc3)c3ccccc3)C(C)=C1C2(C)C` [Compound 28a, 7-deoxy-7β-thiocyanatopaclitaxel], `CC(=O)O[C@H]1C(=O)[C@]2(C)[C@@H](SCC#N)C[C@H]3OC[C@@]3(OC(C)=O)[C@H]2[C@H](OC(=O)c2ccccc2)[C@]2(O)C[C@H](OC(=O)[C@H](O)[C@@H](NC(=O)c3ccccc3)c3ccccc3)C(C)=C1C2(C)C` [Compound 25a] is lower in IC50: 1.8 nM for the first, under 0.04 nM for the second. The second is the more potent here.

In the case of `CC(=O)O[C@H]1C(=O)[C@]2(C)[C@@H](SCCO)C[C@H]3OC[C@@]3(OC(C)=O)[C@H]2[C@H](OC(=O)c2ccccc2)[C@]2(O)C[C@H](OC(=O)[C@H](O)[C@@H](NC(=O)c3ccccc3)c3ccccc3)C(C)=C1C2(C)C` [Compound 20a, 7-deoxy-7β-(2-hydroxethylthio)paclitaxel], the IC50 is reported as 0.82 nM.

same assay, conditions: Homo sapiens; HCT-116 cells, MTS assay, 72 hours at 37° C.; drug concentration required to inhibit cell proliferation to 50% of untreated control; read-out: IC50 HCT 116

Compared with `CC(=O)O[C@H]1C(=O)[C@@]2(C)[C@H]([C@H](OC(=O)c3ccccc3)[C@]3(O)C[C@H](OC(=O)[C@H](O)[C@@H](NC(=O)c4ccccc4)c4ccccc4)C(C)=C1C3(C)C)[C@]1(OC(C)=O)CO[C@@H]1C[C@H]2S(C)(=O)=O` [Compound 7a, 7-deoxy-7α-methylsulfonylpaclitaxel], `CC(=O)O[C@@H]1C2=C(C)[C@@H](OC(=O)[C@H](O)[C@@H](NC(=O)c3ccccc3)c3ccccc3)C[C@@](O)([C@@H](OC(=O)c3ccccc3)[C@@H]3[C@]4(OC(C)=O)CO[C@@H]4C[C@@H]4[C@@]3(C)C1(O)CS4(=O)=O)C2(C)C` (stereo partly drawn) [Compound 9a] is 24-fold lower in IC50: 72.3 nM for the first, 2.99 nM for the second.

same assay, conditions: read-out: IC50 HCT 116; HCT-116 cells, MTS assay, 72 hours at 37° C.; drug concentration required to inhibit cell proliferation to 50% of untreated control

Compound `CC(=O)O[C@H]1C(=O)[C@]2(C)[C@@H]([S+](C)[O-])C[C@H]3OC[C@@]3(OC(C)=O)[C@H]2[C@H](OC(=O)c2ccccc2)[C@]2(O)C[C@H](OC(=O)[C@H](O)[C@@H](NC(=O)c3ccccc3)c3ccccc3)C(C)=C1C2(C)C` (single isomer, unassigned) [Compound 29b, 7-deoxy-7β-methylsulfinyl-paclitaxel] has an IC50 of 12.1 nM.
For `CC(=O)O[C@H]1C(=O)[C@]2(C)[C@@H]([S+](C)[O-])C[C@H]3OC[C@@]3(OC(C)=O)[C@H]2[C@H](OC(=O)c2ccccc2)[C@]2(O)C[C@H](OC(=O)[C@H](O)[C@@H](NC(=O)c3ccccc3)c3ccccc3)C(C)=C1C2(C)C` (single isomer, unassigned) [Compound 29a, 7-deoxy-7β-methylsulfinyl-paclitaxel], the IC50 was 3.99 nM.

test system: not given; experiment: not given; settings: background statement; cited from earlier work

For `CC(=O)O[C@@]12CO[C@@H]1C[C@H](O)[C@@]1(C)C(=O)[C@H](O)C3=C(C)[C@@H](OC(=O)[C@H](O)[C@@H](NC(=O)OC(C)(C)C)c4ccccc4)C[C@@](O)([C@@H](OC(=O)c4ccccc4)[C@H]21)C3(C)C` [docetaxel], the antitumor activity is listed as “good antitumor activity”.

test system: not given; experiment: not given; settings: background statement; cited from earlier work; remark: another data set of the same source

For `CC(=O)O[C@H]1C(=O)[C@@]2(C)[C@H]([C@H](OC(=O)c3ccccc3)[C@]3(O)C[C@H](OC(=O)[C@H](O)[C@@H](NC(=O)c4ccccc4)c4ccccc4)C(C)=C1C3(C)C)[C@]1(OC(C)=O)CO[C@@H]1C[C@@H]2O` [paclitaxel], the “antitumor activity in in vivo animal models” value is listed as “excellent antitumor activity”.
